Results taken from patent US7820714B2, “Siglec inhibitors” (priority 2001, dated 2010).

Assays:
[1] = molecular target: Siglec-1 (sialoadhesin) (Mus musculus, UniProt Q62230); experiment: Hapten inhibition assay, Siglec-1 (sialoadhesin); assay type: binding; conditions: for Siglec-1 (sialoadhesin) percentage in parentheses below the IC50 bound: at the concentration of the IC50 bound, meaning not defined in the patent; for Siglec-1 (sialoadhesin) rIP: quotient IC50 reference compound / IC50 compound
Sequence of Siglec-1 (sialoadhesin) (Q62230 20-136 limits assumed): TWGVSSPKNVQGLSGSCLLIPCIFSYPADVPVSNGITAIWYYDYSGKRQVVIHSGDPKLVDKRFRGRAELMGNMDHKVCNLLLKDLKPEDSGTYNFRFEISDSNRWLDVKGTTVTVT
Procedure: (§1) Preferably, the inhibition can be determined by a Hapten inhibition test. […] After overnight incubation at 4° C. the unbound complexes are removed by washing the cells and the bound radioactivity is determined. From the data obtained in this way, the concentrations are found which lead to 50% inhibition of the binding (IC50 values) (5, 6). Specially preferred during the Hapten inhibition test was 10 μl of the complex solution with an activity of 10^3 Bq ^125I mixed with the same volume of a solution of the substance to be investigated (concentrated three times) and incubated at 4° C. for one hour. Then followed the addition of 10 μl of a suspension of target cells, preferably 0.25 to 0.5% of human erythrocytes and incubation overnight at 4° C. The unbound radioactivity is removed by washing the cells five times with 200 μl of washing buffer, preferably phosphate-buffered saline with 0.1% (W/V) bovine serum albumin, and the cell-bound activity is determined with a γ-counter. […] The inhibition is determined in that the value without inhibitor is set to 0% and that with the sialidase-treated cells is set equal to 100%.
(§2) The IC50 value is the siglec inhibitor concentration which leads to 50% inhibition in the binding in the Hapten inhibition assay.

[2] = molecular target: T1, Siglec-2 (human CD22) (Homo sapiens, UniProt P20273); experiment: Hapten inhibition assay, Siglec-2 (human CD22); assay type: binding; conditions: for Siglec-2 (human CD22) rIP: quotient IC50 reference compound / IC50 compound; for IC50: unit inferred
T1 sequence (P20273 20-138 limits assumed): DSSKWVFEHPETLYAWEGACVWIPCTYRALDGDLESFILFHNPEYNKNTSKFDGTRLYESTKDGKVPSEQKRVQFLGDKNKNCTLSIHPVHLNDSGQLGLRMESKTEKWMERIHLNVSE
Procedure: as §1, §2

[3] = molecular target: T2, Siglec-2 (murine CD22) (Mus musculus, UniProt P35329); experiment: Hapten inhibition assay, Siglec-2 (murine CD22); assay type: binding; conditions: for Siglec-2 (murine CD22) rIP: quotient IC50 reference compound / IC50 compound
T2 sequence (P35329 22-148 limits assumed): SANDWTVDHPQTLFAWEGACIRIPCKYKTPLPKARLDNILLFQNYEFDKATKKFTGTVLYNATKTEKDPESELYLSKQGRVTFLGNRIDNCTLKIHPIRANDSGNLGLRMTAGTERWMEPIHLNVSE
Procedure: as §1, §2

[4] = molecular target: T3, Siglec-4a (MAG) (UniProt P20917); experiment: Hapten inhibition assay, Siglec-4a (MAG); conditions: for Siglec-4a (MAG) rIP: quotient IC50 reference compound / IC50 compound; for IC50: read-out: Siglec-4a (MAG) IC50, unit inferred; for binds stronger to siglec-4a than the reference compound: relative to 2-alpha-methyl-5-N-acetyl-neuraminic acid
T3 sequence (P20917 1-627): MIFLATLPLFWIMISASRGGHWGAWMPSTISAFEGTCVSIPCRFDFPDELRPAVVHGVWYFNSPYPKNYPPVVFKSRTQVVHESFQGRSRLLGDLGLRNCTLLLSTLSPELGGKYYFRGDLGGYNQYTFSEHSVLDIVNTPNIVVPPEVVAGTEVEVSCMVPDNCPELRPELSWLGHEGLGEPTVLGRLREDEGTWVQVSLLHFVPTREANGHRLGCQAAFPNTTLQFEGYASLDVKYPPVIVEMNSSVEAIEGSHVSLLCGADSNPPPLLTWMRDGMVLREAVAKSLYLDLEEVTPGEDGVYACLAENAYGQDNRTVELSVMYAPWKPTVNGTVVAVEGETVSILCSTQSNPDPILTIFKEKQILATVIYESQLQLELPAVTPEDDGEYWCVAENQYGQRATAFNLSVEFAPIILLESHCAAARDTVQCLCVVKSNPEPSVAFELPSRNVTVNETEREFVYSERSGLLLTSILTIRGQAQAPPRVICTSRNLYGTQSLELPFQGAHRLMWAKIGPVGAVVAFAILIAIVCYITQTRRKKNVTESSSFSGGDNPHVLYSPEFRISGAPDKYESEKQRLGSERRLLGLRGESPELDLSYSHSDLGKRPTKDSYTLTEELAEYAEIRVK
Procedure: Preferably, the inhibition can be determined by a Hapten inhibition test. […] After overnight incubation at 4° C. the unbound complexes are removed by washing the cells and the bound radioactivity is determined. […] Then followed the addition of 10 μl of a suspension of target cells, preferably 0.25 to 0.5% of human erythrocytes and incubation overnight at 4° C. The unbound radioactivity is removed by washing the cells five times with 200 μl of washing buffer, preferably phosphate-buffered saline with 0.1% (W/V) bovine serum albumin, and the cell-bound activity is determined with a γ-counter. […] The inhibition is determined in that the value without inhibitor is set to 0% and that with the sialidase-treated cells is set equal to 100%.

| Siglec-1 (sialoadhesin) rIP [1] | Siglec-2 (human CD22) rIP [2] | IC50 [2] [µM] | Siglec-2 (murine CD22) rIP [3] | IC50 ([3]; unit inferred) [mM] | Siglec-4a (MAG) rIP [4] | IC50 [4] [µM] | IC50 ([1]; unit inferred) [mM] | Siglec-2 (murine CD22) percentage in parentheses below the IC50 bound ([3]; at the concentration of the IC50 bound, meaning not defined in the patent) | IC50 ([3]; bounds given in mM) [mM] | binds stronger to siglec-4a than the reference compound [4] | Structure (SMILES) | Siglec-1 (sialoadhesin) percentage in parentheses below the IC50 bound [1] | IC50 ([1]; bounds given in mM) [mM] |
| --- | --- | --- | --- | --- | --- | --- | --- | --- | --- | --- | --- | --- | --- |
| 8.4 | 19 | 120 | 7.4 | 0.667 | 393 | 12 | 0.042 | – | – | – | COc1ccc(C(=O)NC[C@@H](O)[C@@H](O)[C@@H]2O[C@@](OC)(C(=O)O)C[C@H](O)[C@H]2NC(C)=O)cc1 [Methyl-α-9-N-(4-methoxybenzoyl)-amino-9-desoxy-Neu5Ac] | – | – |
| 0.5 | 4.9 | 338 | 7.4 | 0.647 | 28 | 162 | 0.75 | – | – | – | COC1(C(=O)O)CC(O)C(NC(C)=O)C(C(O)C(O)CNC(=O)c2cccc3cc4ccccc4cc23)O1 (stereo not drawn) [Methyl-α-9-N-(anthracen-5-carbonyl)-amino-9-desoxy-Neu5Ac] | – | – |
| <<0.2 | – | 41 | – | – | 54 | 87 | – | (100%) | > 10 | – | COC1(C(=O)O)CC(O)C(NC(C)=O)C(C(O)C(O)CNC(=O)c2ccc3ccccc3n2)O1 (stereo not drawn) [Methyl-α-9-N-(chinaldine-2-carbonyl)-amino-9-desoxy-Neu5Ac] | (100%) | > 2.5 |
| 0.3 | 27 | 37 | 64 | 0.092 | 84 | 56 | 3 | – | – | – | CO[C@]1(C(=O)O)C[C@H](O)[C@@H](NC(C)=O)[C@H]([C@H](O)[C@H](O)CNC(=O)c2cccc3ccccc23)O1 [Methyl-α-9-N-(naphthyl-1-carbonyl)-amino-9-desoxy-Neu5Ac] | – | – |
| 0.5 | 131 | 8 | 83 | 0.071 | 13 | 367 | 1.75 | – | – | – | CO[C@]1(C(=O)O)C[C@H](O)[C@@H](NC(C)=O)[C@H]([C@H](O)[C@H](O)CNC(=O)Cc2ccc3ccccc3c2)O1 [Methyl-α-9-N-(naphthyl-2-acetyl)-amino-9-desoxy-Neu5Ac] | – | – |
| 12 | 167 | 6 | 18 | 0.27 | 236 | 20 | 0.078 | – | – | approx. 236 times | COC1(C(=O)O)CC(O)C(NC(C)=O)C(C(O)C(O)CNC(=O)c2ccc3ccccc3c2)O1 (stereo not drawn) [Methyl-α-9-N-(naphthyl-2-carbonyl)-amino-9-desoxy-Neu5Ac] | – | – |
| 1.5 | 111 | 10 | 6.7 | 0.887 | – | – | 0.54 | – | – | – | COC1(C(=O)O)CC(O)C(NC(C)=O)C(C(O)C(O)CNC(=O)c2cccc(Oc3ccccc3)c2)O1 (stereo not drawn) [Methyl-α-9-N-(phenoxy-3-benzoyl)-amino-9-desoxy-Neu5Ac] | – | – |
| 1.8 | 5.7 | 290 | 3.7 | 1.09 | 704 | 7 | 0.539 | – | – | approximately 704 times | CO[C@]1(C(=O)O)C[C@H](O)[C@@H](NC(C)=O)[C@H]([C@H](O)[C@H](O)CNC(=O)c2ccccc2)O1 [Methyl-α-9-N-benzoyl-amino-9-desoxy-Neu5Ac] | – | – |

Continued, compound first:

| Structure (SMILES) | Siglec-1 (sialoadhesin) rIP [1] | Siglec-2 (human CD22) rIP [2] | IC50 [2] [µM] | Siglec-2 (murine CD22) rIP [3] | IC50 ([3]; unit inferred) [mM] | Siglec-4a (MAG) rIP [4] | IC50 [4] [µM] | IC50 ([1]; unit inferred) [mM] | Siglec-2 (murine CD22) percentage in parentheses below the IC50 bound ([3]; at the concentration of the IC50 bound, meaning not defined in the patent) | IC50 ([3]; bounds given in mM) [mM] | binds stronger to siglec-4a than the reference compound [4] | Siglec-1 (sialoadhesin) percentage in parentheses below the IC50 bound [1] | IC50 ([1]; bounds given in mM) [mM] |
| --- | --- | --- | --- | --- | --- | --- | --- | --- | --- | --- | --- | --- | --- |
| CCOc1c(N[C@H]2[C@H]([C@H](O)[C@H](O)CO)O[C@@](OC)(C(=O)O)C[C@@H]2O)c(=O)c1=O [Methyl-α-5-N-(etoxycylcobutendion)-neuraminic acid] | <<0.15 | 2.3 | 940 | 1.5 | 3.37 | 0.5 | 4300 | – | – | – | – | (92%) | > 5 |
| CO[C@]1(C(=O)O)C[C@H](O)[C@@H](NC(C)=O)[C@H]([C@H](O)[C@H](O)CNC(=O)c2ccc([N+](=O)[O-])cc2[N+](=O)[O-])O1 [Methyl-α-9-N-(2,4-dinitrobenzoyl)-amino-9-desoxy-Neu5Ac] | 0.3 | 7.7 | 287 | 7.9 | 0.593 | 18 | 205 | 0.733 | – | – | – | – | – |
| CO[C@]1(C(=O)O)C[C@H](O)[C@@H](NC(C)=O)[C@H]([C@H](O)[C@H](O)CNC(=O)c2cc(O)cc(O)c2)O1 [Methyl-α-9-N-(3,5-dihydroxybenzoyl)-amino-9-desoxy-Neu5Ac] | 1.7 | 19 | 73 | – | 1.47 | 166 | 28 | 0.525 | – | – | – | – | – |
| CO[C@]1(C(=O)O)C[C@H](O)[C@@H](NC(C)=O)[C@H]([C@H](O)[C@H](O)CNC(=O)c2ccc(NC(C)=O)cc2)O1 [Methyl-α-9-N-(acetamidobenzoyl)-amino-9-desoxy-Neu5Ac] | 3.0 | 2.4 | 580 | – | 1.03 | 77 | 62 | 0.295 | – | – | – | – | – |
| CO[C@]1(C(=O)O)C[C@H](O)[C@@H](NC(C)=O)[C@H]([C@H](O)[C@H](O)CNC(=O)C(c2ccccc2)c2ccccc2)O1 [Methyl-α-9-N-(diphenylacetyl)-amino-9-desoxy-Neu5Ac] | 0.2 | – | 35 | – | 0.103 | 31 | 150 | 4.4 | – | – | – | – | – |
| COC1(C(=O)O)CC(O)C(NC(C)=O)C(C(O)C(O)CNC(=O)c2c(F)c(F)c(F)c(F)c2F)O1 (stereo not drawn) [Methyl-α-9-N-(pentafluorbenzoyl)-amino-9-desoxy-Neu5Ac] | 0.3 | 3.3 | 360 | 2.0 | 2.5 | 42 | 107 | 7 | – | – | – | – | – |
| CO[C@]1(C(=O)O)C[C@H](O)[C@@H](NC(C)=O)[C@H]([C@H](O)[C@H](O)CNC(=O)c2cccnc2)O1 [Methyl-α-9-N-(pyridine-3-carbonyl)-amino-9-desoxy-Neu5Ac] | 0.5 | 2.3 | 445 | 14 | 0.335 | 170 | 25 | – | – | – | – | – | – |
| CO[C@]1(C(=O)O)C[C@H](O)[C@@H](NC(C)=O)[C@H]([C@H](O)[C@H](O)CNC(C)=O)O1 [Methyl-α-9-N-acetyl-amino-9-desoxy-Neu5Ac] | 0.2 | 0.6 | 1800 | 2.7 | 1.75 | 3.7 | 2150 | 3.82 | – | – | – | – | – |
